Values of other authors as cited in patent US20070203145A1, “ZOPICLONE RESOLUTION” (priority 2006, published 2007).

What was measured:
[1] = compared with racemic zopiclone; per U.S. Pat. No. 6,444,673
[2] = compared with racemic zopiclone; per U.S. Pat. No. 6,444,673; remark: listed apart in the source

CN1CCN(C(=O)O[C@H]2c3nccnc3C(=O)N2c2ccc(Cl)cn2)CC1 [S-zopiclone, Eszopiclone]
activity relative to the racemic mixture [1]: twice the activity of the racemic mixture | toxicity relative to the racemic mixture [2]: less toxicity
